Measurements from patent publication US5039691A, “5-(1-(imidazol)methyl)-3,3-disubstituted-2(3H)furanone derivatives” (Marion Merrell Dow Inc., priority 1990, dated 1991).
Where a name gives a salt, the structure may show the parent alone.

Experiments:
Parameters in all cases: species or system guinea pig
[1] = target: T1, muscarinic cholinergic receptors on intestinal (ileal-longitudinal) smooth muscle (Cavia porcellus, UniProt H0W1Z3); experiment: Antimuscarinic test: antagonism of carbachol contraction of isolated ileum (Muscarinic Antagonist Activity, Ileum); details: carbachol agonist, 37° C.
T1 construct: The longitudinal muscle, with the myenteric plexus attached, is separated from the underlying circular muscle; from tissue; host or cells: guinea pig ileum, longitudinal smooth muscle with myenteric plexus
T1 sequence (H0W1Z3 1-590): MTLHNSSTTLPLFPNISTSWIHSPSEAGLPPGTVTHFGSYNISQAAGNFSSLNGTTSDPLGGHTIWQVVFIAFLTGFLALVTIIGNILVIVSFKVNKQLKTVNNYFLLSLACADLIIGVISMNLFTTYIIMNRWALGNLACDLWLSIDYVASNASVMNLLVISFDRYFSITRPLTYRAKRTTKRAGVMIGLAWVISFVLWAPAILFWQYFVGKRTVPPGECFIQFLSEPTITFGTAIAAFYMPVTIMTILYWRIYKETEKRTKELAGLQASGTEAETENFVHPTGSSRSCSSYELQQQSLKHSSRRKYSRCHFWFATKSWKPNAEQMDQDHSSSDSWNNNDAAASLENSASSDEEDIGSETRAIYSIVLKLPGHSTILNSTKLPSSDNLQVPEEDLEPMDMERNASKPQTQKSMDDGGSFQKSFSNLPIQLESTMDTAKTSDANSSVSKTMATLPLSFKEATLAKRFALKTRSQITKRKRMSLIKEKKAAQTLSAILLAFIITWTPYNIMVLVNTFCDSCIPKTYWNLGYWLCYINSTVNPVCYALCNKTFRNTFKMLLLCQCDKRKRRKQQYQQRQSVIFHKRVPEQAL

[2] = target: T2, muscarinic cholinergic receptors on bladder detrusor muscle (Cavia porcellus, UniProt H0W1Z3); experiment: Antimuscarinic test: antagonism of carbachol contraction of isolated bladder (Muscarinic Antagonist Activity, Bladder); details: bladder detrusor strips, carbachol agonist, 35° C.
T2 construct: The peritoneal cavity is opened and the bladder is held lightly at its apex; from tissue; host or cells: guinea pig urinary bladder, detrusor strips without mucosa
T2 sequence (H0W1Z3 1-590): as above
Procedure: ANTIMUSCARINIC TEST PROTOCOL
PREPARATION OF BLADDER FOR TESTING
Male albino guinea pigs are killed by decapitation or cervical dislocation. The peritoneal cavity is opened and the bladder is held lightly at its apex, stretched gently, and fat is lifted with fine forceps and dissected away in situ with blunt-tipped scissors as close to the surface of the bladder as possible. The tissue is placed in a latex-bottomed Petri dish that contains a modified Krebs solution (133 mM NaCl, 1.3 mM […], 16.3 mM NaHCO3, 4.7 mM KCl, 0.6 mM MgSO4.7H2 O, 2.5 mM CaCl2.2H2 O, 7.7 mM dextrose) and cut above the neck. The bladder is collapsed into a flat pouch, which is opened by two lateral incisions and unfolded to give a rectangular sheet of tissue approximately 2 cm long and 1 cm wide. The sheet is gently stretched and pinned to the bottom of the Petri dish. Blunt separation of the mucosa, which is visible as a looser superficial pink layer, is started at one end by carefully inserting the blades of micro dissecting scissors between the mucosa and muscle layers and using gentle spreading of the blades, together with steady traction with forceps to tease the two layers apart. Clean removal of the mucosa is usually possible without any fraying or tearing of the underlying muscle. The removal of the mucosa is considered essential for improving oxygen supply to the preparation and for providing better access on both sides of the thin muscle sheet for administered drugs (Ambache and Zar, J. Physiol. 210:671, 1970). The sheet is trimmed, if necessary, and cut longitudinally into four strips.
The strips are tied off with 5-0 silk suture and are then suspended in 10 mL water-jacketed glass tissue baths containing the Krebs solution maintained at 35° C. and aerated with 95% O2 /5% CO2. The suture connects each tissue to an isometric force-displacement transducer (Grass or Gould) coupled to a physiograph. Each preparation is suspended under a resting tension of 0.5 g and allowed to equilibrate for 36 minutes. During this period, the baths are emptied and filled every 12 minutes with 10 mL of warm Krebs buffer. At the end of this period, each muscle strip is conditioned by adding 10 μM carbachol to the baths. The drug remains in contact with each tissue for 1-2 minutes and then is removed by four rapid rinses of 10 mL of warm Krebs buffer. The preparations are allowed to recover for an additional 12 minutes before being used in experiments.
Carbachol is dissolved in saline to produce 2×10^-2 M stock concentrations. Serial dilutions (1:10) in saline or water are made from the stock solution. Appropriate volumes of these solutions are added cumulatively to the 10 mL tissue baths in order to obtain the desired bath concentrations.
PREPARATION OF TEST COMPOUNDS
Compounds that are soluble in water or saline are dissolved in these solvents to produce 2×10^-2 or 2×10^-3 M stock concentrations. Small amounts of IN HCl, NaOH, or 95% ethanol may be added for those agents that are not soluble in water or saline alone. Serial dilutions (1:10) in saline or water are made from the stock solution. Compounds that are insoluble in aqueous solvents are dissolved in dimethylsulfoxide (DMSO) to produce 4×10^-2 M stock solutions. Serial dilutions (1:10) in water are made from the stock solution. Other solvents may be used when appropriate and will be specifically described in the experimental procedure. Appropriate volumes are then added to the baths in order to obtain the desired bath concentrations.
Appropriate volumes of carbachol solutions are cumulatively added to the 10 mL tissue baths to increase the concentration of carbachol in the bath step-by-step without washing out after each single dose. With each concentration step, the tissue contracts isometrically. The next concentration is added only after the preceding contraction has reached a steady value. […]

Male Guinea pigs = experiment: Primary in vivo bronchodilator assay for muscarinic antagonists (reversal of carbachol bronchoconstriction); details: cumulative dose causing 50% reversal of carbachol bronchoconstriction; for ED50: Cavia porcellus, iv; for Bronchodilator Activity ED50: i.v.
Procedure: PRIMARY IN VIVO BRONCHODILATOR ASSAY FOR MUSCARINIC ANTAGONISTS Male Guinea pigs were anesthetized by urethane. The trachea, carotid artery and jugular vein were cannulated. Animals were ventilated with room air at a constant rate and volume. Airway pressure was measured from a side port of the tracheal catheter, and blood pressure and heart rate were monitored as well. After a stable baseline period, an aerosol of carbachol was administered via an ultrasonic nebulizer. Once the bronchoconstrictor response plateaued, test compound was given in increasing i.v. doses to cause graded, cumulative reductions in airway pressure. If more than a 50% reversal of bronchoconstriction occurred, an ED50 value for bronchodilator potency was calculated using a probit analysis. The ED50 was defined as the cumulative i.v. dose that caused a 50% reversal of bronchoconstriction.

| Kb [1] [nM] | Kb [2] [nM] | Compound | ED50 (Male Guinea pigs) [mg/kg] | Bronchodilator Activity ED50 (Male Guinea pigs) [mg/kg] |
| --- | --- | --- | --- | --- |
| 2.9 | 0.7 | CC(C)c1n(CC2CC(c3ccccc3)(c3ccccc3)C(=O)O2)cc[n+]1C (centres unmarked) [5-[1-(2-Isopropyl-3-methylimidazol-methyl]-4,5-dihydro-3,3-diphenyl-2(3H)furanone bromide] | – | – |
| 39 | – | COCCc1n(CC2CC(c3ccccc3)(c3ccccc3)C(=O)O2)cc[n+]1C (centres unmarked) [5-[1-(2-Methoxyethyl-3-methylimidazol)methyl]-4,5-dihydro-3,3-diphenyl-2(3H)furanone iodide hydrate] | – | – |
| 638 | – | COCCc1nccn1CC1CC(c2ccccc2)(c2ccccc2)C(=O)O1 (centres unmarked) [5-[1-(2-Methoxyethylimidazol)methyl]-4,5-dihydro-3,3-diphenyl-2(3H)furanone hydrochloride] | > 10 | – |
| 40 | – | COCc1n(CC2CC(c3ccccc3)(c3ccccc3)C(=O)O2)cc[n+]1C (centres unmarked) [5-[1-(2-Methoxymethyl-3-methylimidazol)methyl]-4,5-dihydro-3,3-diphenyl-2(3H)furanone iodide] | – | – |
| 544 | – | Cc1n(CC2CC(c3ccccc3)(c3ccccc3)C(=O)O2)cc[n+]1Cc1ccccc1 (centres unmarked) [5-[1-(2-Methyl-3-benzylimidazol)methyl]-4,5-dihydro-3,3-diphenyl-2(3H)furanone bromide] | – | – |
| 5920 | – | O=C1OC(Cn2ccnc2-c2ccccc2)CC1(c1ccccc1)c1ccccc1 (centres unmarked) [5-[1-(2-Phenylimidazol)methyl]-4,5-dihydro-3,3-diphenyl-2(3H)furanone] | > 6 | – |
| 113 | – | CCCCc1nccn1CC1CC(c2ccccc2)(c2ccccc2)C(=O)O1 (centres unmarked) [5-[1-(2-n-Butylimidazol)methyl]-4,5-dihydro-3,3-diphenyl-2(3H)furanone] | > 10 | – |
| 3.3 | – | CC(C)(C)c1nccn1CC1CC(c2ccccc2)(c2ccccc2)C(=O)O1 (centres unmarked) [5-[1-(2-tert-Butylimidazol)methyl]-4,5-dihydro-3,3-diphenyl-2(3H)furanone hydrochloride] | 0.14 | – |
| 229 | – | CCn1cc[n+](CC2CC(c3ccccc3)(c3ccccc3)C(=O)O2)c1 (centres unmarked) [5-[1-(Ethylimidazol)methyl]-4,5-dihydro-3,3-diphenyl-2(3H)furanone bromide] | – | – |
| 67 | – | COCc1nccn1CC1CC(c2ccccc2)(c2ccccc2)C(=O)O1 (centres unmarked) [5-[1-[2-(2-Methoxymethyl)imidazol]methyl]-4,5-dihydro-3,3-diphenyl-2(3H)furanone hydrochloride hydrate] | > 10 | – |
| > 1000 | – | O=C1OC(C[N+]2=C3CCCCCN3CCC2)CC1(c1ccccc1)c1ccccc1 (centres unmarked) [5-[(1,8-Diazabicyclo[5.4.0]undec-7-en-8-yl)methyl]-4,5-dihydro-3,3-diphenyl-2(3H)furanone chloride hydrate] | > 10 | – |
| 1280 | – | O=C1OC(Cn2cnc3ccccc32)CC1(c1ccccc1)c1ccccc1 (centres unmarked) [5-[(1-Benzimidazol)methyl]-4,5-dihydro-3,3-diphenyl-2(3H)furanone] | – | – |
| 373 | – | O=C1OC(Cn2ccnc2)CC1(c1ccccc1)c1ccccc1 (centres unmarked) [5-[(1-Imidazol)methyl]-4,5-dihydro-3,3-diphenyl-2(3H)furanone] | – | – |
| 33 | – | O.O=C1OC(C[n+]2ccn3c2CCC3)CC1(c1ccccc1)c1ccccc1.[Cl-] (centres unmarked) [6,7-Dihydro-1-[(2,3,4,5-tetrahydro-5-oxo-4,4-diphenyl-2-furanyl)methyl]-5H-pyrrolo[1,2-a]imidazolium chloride hydrate] | 0.7 | – |

More lines, now with the values behind:

| Compound | Kb [1] [nM] | Kb [2] [nM] | ED50 (Male Guinea pigs) [mg/kg] | Bronchodilator Activity ED50 (Male Guinea pigs) [mg/kg] |
| --- | --- | --- | --- | --- |
| 5-[1-(3-Methylimidazol)methyl]-4,5-dihydro-5-methyl-3,3-diphenyl-2(3H)furanone hydrate | 370 | 317 | – | – |
| Cc1cccn2cc[n+](CC3CC(c4ccccc4)(c4ccccc4)C(=O)O3)c12 (centres unmarked) [1-[(2,3,4,5-Tetrahydro-5-oxo-4,4-diphenyl-2-furanyl)methyl]-8-methylimidazo[1,2-a]pyridinium chloride hydrate] | 74 | – | – | – |
| O=C1OC(C[n+]2ccn3ccccc32)CC1(c1ccccc1)c1ccccc1 (centres unmarked) [1-[(2,3,4,5-Tetrahydro-5-oxo-4,4-diphenyl-2-furanyl)methyl]imidazo[1,2-a]pyridinium chloride hydrate] | 45 | – | – | – |
| Cc1n(CC2CC(c3ccccc3)(c3ccccc3)C(=O)O2)cc[n+]1C (centres unmarked) [5-[1-(2,3-Dimethylimidazol)methyl]-4,5-dihydro-3,3-diphenyl-2(3H)furanone bromide] | 71 | – | 0.85 | – |
| O=C1OC(Cn2ccnc2Cc2ccccc2)CC1(c1ccccc1)c1ccccc1 (centres unmarked) [5-[1-(2-Benzylimidazol)methyl]-4,5-dihydro-3,3-diphenyl-2(3H)furanone hydrochloride] | 223 | – | – | – |
| COC(=O)c1nccn1CC1CC(c2ccccc2)(c2ccccc2)C(=O)O1 (centres unmarked) [5-[1-(2-Carbomethoxyimidazol)methyl]-4,5-dihydro-3,3-diphenyl-2(3H)furanone hydrochloride] | 435 | – | – | – |
| CCOCc1nccn1CC1CC(c2ccccc2)(c2ccccc2)C(=O)O1 (centres unmarked) [5-[1-(2-Ethoxymethylimidazol)methyl]-4,5-dihydro-3,3-diphenyl-2(3H)furanone] | > 1000 | – | > 10 | – |
| CCc1nc(C)cn1CC1CC(c2ccccc2)(c2ccccc2)C(=O)O1 (centres unmarked) [5-[1-(2-Ethyl-4-methylimidazol-methyl]-4,5-dihydro-3,3-diphenyl-2(3H)furanone hydrobromide] | 86 | – | – | – |
| CCc1nccn1CC1=CC(c2ccccc2)(c2ccccc2)C(=O)O1 [5-[1-(2-Ethylimidazol)methyl]-3,3-diphenyl-2(3H)furanone] | 8.2 | – | 1.9 | – |
| CC(C)Cc1nccn1CC1CC(c2ccccc2)(c2ccccc2)C(=O)O1 (centres unmarked) [5-[1-(2-Isobutylimidazol)methyl]-4,5-dihydro-3,3-diphenyl-2(3H)furanone hydrochloride] | 489 | – | > 10 | – |
| CC(C)c1n(CC2CC(c3ccccc3)(c3ccccc3)C(=O)O2)cc[n+]1C (centres unmarked) [5-[1-(2-Isopropyl-3-methylimidazol)methyl]-4,5-dihydro-3,3-d] [5-[1-(2-Isopropyl-3-methylimidazol)methyl]-4,5-dihydro-3,3-diphenyl-2(3H)furanone iodide] | – | – | – | 0.06 |
| CC(C)c1n(CC2CC(c3ccccc3)(c3ccccc3)C(=O)O2)cc[n+]1C (centres unmarked) [5-[1-(2-Isopropyl-3-methylimidazol)methyl]-4,5-dihydro-3,3-diphenyl-2(3H)furanone iodide] | 4 | 2.4 | – | – |
| CC(C)c1n(CC2CC(c3ccccc3)(c3ccccc3)C(=O)O2)cc[n+]1C (centres unmarked) [5-[1-(2-Isopropyl-3-methylimidazol-methyl]-4,5-dihydro-3,3-d] [5-[1-(2-Isopropyl-3-methylimidazol-methyl]-4,5-dihydro-3,3-diphenyl-2(3H)furanone bromide] | – | – | – | 0.007 |
